Reference: PubChem BioAssay (NCI)
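Exposure lasted 48 hours, with cells grown in 96-well plates and compounds tested at five concentrations. TGI: concentration producing complete growth inhibition.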

What was measured:
Assay in all cases: NCI-60 cell line screen, 48 h
[1] = tested on: MALME-3M melanoma
[2] = tested on: MDA-MB-231 breast
[3] = tested on: OVCAR-5 ovarian
[4] = tested on: CCRF-CEM leukemia
[5] = tested on: NCI-H226 lung
[6] = tested on: CAKI-1 renal
[7] = tested on: SF-268 CNS
[8] = tested on: K-562 leukemia
[9] = tested on: UACC-257 melanoma
[10] = tested on: SNB-19 CNS
[11] = tested on: SN12C renal
[12] = tested on: BT-549 breast
[13] = tested on: HT29 colon

Compound	TGI [1] [µM]	TGI [2] [µM]	TGI [3] [µM]	TGI [4] [µM]	TGI [5] [µM]	TGI [6] [µM]	TGI [7] [µM]	TGI [8] [µM]	TGI [9] [µM]	TGI [10] [µM]	TGI [11] [µM]	TGI [12] [µM]	TGI [13] [µM]
C(/C=C(\Nc1ccccc1)c1ccc2ccccc2c1)=Nc1ccccc1	15	4.1	9.86	2.85	5.64	7.22	29.5	4.22	19.2	8.24	5.15	4.6	
CC(C)C1OC(=O)C(Cc2ccccc2)N(C)C(=O)C(C(C)C)OC(=O)C(Cc2ccccc2)N(C)C(=O)C(C(C)C)OC(=O)C(Cc2ccccc2)N(C)C1=O (configuration not stated)	1.29	2.67	2.44	1.59	2.72	2.46	3.2	3.52	2	2.18	2.14	3.01	2.07
O=C(Cn1c(=O)oc2ccccc21)N(c1ccccc1)c1ccccc1	> 100	> 100	> 100	> 100	> 100	> 100	> 100	> 100	> 100	> 100	> 100	> 100	> 100
CCOC(=O)/C(C(=O)c1ccc[nH]1)=C1/CCCN1C	> 100	> 100	> 100	> 100	> 100	> 100	> 100	> 100	> 100	> 100	> 100	> 100	> 100
CC(C)=CC(=O)c1[nH]c2ccccc2c1CC(=O)NCCc1cnc[nH]1	> 100	> 100	> 100	> 100	> 100	> 100	> 100	> 100	> 100	> 100	> 100	> 100	> 100
CC[C@@]1(O)C(=O)OCc2c1cc1n(c2=O)Cc2c-1nc1ccc(N)cc1c2CC[Si](C)(C)C	0.31	0.428	1	< 0.01	< 0.01		1.76	> 38.2	0.155	11.1	< 0.01	13.1	11.6
NC1CC(=O)c2c(I)sc(I)c21 (configuration not stated)	29.8	38.1	53	> 34.3	45.6	27.1	46.1	> 100	39.9	46.9	> 60.6	37.4	50.6
CNC(=O)OC1/C(C)=C\C(C)C(O)C(OC)CC(C)CC2=C(OC)C(=O)C=C(C2=O)N(C)C(=O)/C(C)=C/C=C\C1OC (configuration not stated)	27.1	6.44	22.7	4.08	36.7	20.8	26.1	12.5	19	> 75.8	16.5	18.5	17
COC(=O)c1sc2c(c1C(=O)OC)C(=Nc1ccc(OC)cc1)SC2=Nc1ccc(OC)cc1	3.65	2.35	3.55	0.289	3.55	5.84	3.61		2.75	2.88	1.94	3.43	1.73
C=CCSC1=N/C(=C\c2ccc(C)cc2)C(=O)N1CC=C		> 100	> 100			> 100	> 100	44.9	59.8	> 100	28.2	81.6	34.1
CN(C)CCCn1c(-c2ccc(Br)cc2)csc1=Nc1ccccc1		> 100	36.3	> 100	27.3	41	33.6	47.8	29.8	31.6	70.9	31.6	
Cc1csc(NCc2ccc(Cl)cc2)n1	> 100	> 100	> 100	> 100	> 100	> 100	> 100	> 100	> 100	> 100	> 100	> 100	> 100
COc1cccc(C2c3cc4c(cc3OC(NNS(=O)(=O)c3ccc(C)cc3)C2C)OCO4)c1O (configuration not stated)	64.4	49.2	> 100	43.6	> 100	> 100	> 100	39.4	> 100	> 100	> 100	68.8	47.1
CC(=O)N(C(=O)CC(=O)N1N=C(C)C(N=Nc2cccc([N+](=O)[O-])c2)C1=O)c1ccc(Cl)cc1 (configuration not stated)	> 10	> 10	> 10	> 10		> 10	> 10	> 10	> 10	> 10	> 10	> 10	> 10
COC(=O)C(=O)C(C(=O)C(=O)Nc1cc(C)ccc1C)c1nc2ccccc2[nH]c1=O (configuration not stated)	> 100	> 100	> 100	> 100	> 100	> 100	> 100	> 100	> 100	> 100	> 100	> 100	> 100
C=CCN(C(C)=O)c1cc(OCc2ccccc2)c2c(c1)c(C)cn2S(=O)(=O)c1ccccc1	34.2	> 70.8	> 100	> 27.1	> 31.1	> 54.7	> 100	> 54.8	> 100	> 100	> 100	> 100	> 100
Cc1nc2nnc(CCCCCCCCc3nnc4nc(C)[nH]n34)n2[nH]1	> 100	> 100	> 100	> 100	> 100	> 100	> 100	> 100	> 100	> 100	> 100	> 100	> 100
CSC(SC)=C(C#N)C(=O)Nc1ccc(Cl)cc1	> 100	> 100	> 100	74.9	85.9	78.9	> 100	> 100	> 100	> 100	> 100	> 100	> 100

Compound	TGI [1] [µM]	TGI [2] [µM]	TGI [3] [µM]	TGI [4] [µM]	TGI [5] [µM]	TGI [6] [µM]	TGI [7] [µM]	TGI [8] [µM]	TGI [9] [µM]	TGI [10] [µM]	TGI [11] [µM]	TGI [12] [µM]	TGI [13] [µM]
O=C1c2ccccc2CC12Cc1ccc3c(c1C2=O)CCCC3 (configuration not stated)	> 100	86	> 100	> 100	> 100		> 100	> 100	> 100	> 100	> 100	> 100	> 100
c1cc(CSP234N5CCN2CCN3CCN4CC5)cc(CSP234N5CCN2CCN3CCN4CC5)c1		38.2	> 100	62.3		> 100	> 100	> 100	34.9	> 100	> 100	51.6	61
COC(=O)[C@@H]1CN(C(=O)Cc2ccccc2)C(=O)N1	> 100	> 100	> 100	> 100	> 100	> 100	> 100	> 100	> 100	> 100	> 100		> 100
Clc1ccc(Cc2nc3cc4ccccc4cc3[nH]2)cc1Cl	39.4	38	> 100	> 100	78	43.5	62.7	83	37.7	46	52.2	37.2	28.5
COc1ccc2cc(CNCCCCCCNC(=O)Nc3cccc4ccccc34)ccc2c1	> 100	> 100	> 100	> 100	> 100	> 100	> 100	> 100	> 100	> 100	> 100	> 100	> 100
C=CCCCCCCCCCOC1C=CC(O)C(CO)O1 (configuration not stated)	73.3	> 100	> 100		> 100	> 100	> 100	53.3	61.4	> 100	> 100	> 100	46.4
O=C(O)COc1c(Cl)cc(Cl)c(C(c2c(Cl)cc(Cl)c(OCC(=O)O)c2Cl)C(Cl)(Cl)Cl)c1Cl	76.7	61.3	67.6		64.1	> 100	> 100	> 100	59.8	> 100	> 100	51.3	92.6
CN(CCNC(=O)c1nn(C)c2c1Cc1ccccc1-2)CCNC(=O)c1nn(C)c2c1Cc1ccccc1-2	29.8	38.1	89		34.5	47.4	29.4	29.6	27.5	31.8	30.8	30.9	33.5
O=c1[nH]nc(-c2cccc([N+](=O)[O-])c2)[nH]1	> 100		> 100	> 100	> 100	> 100	> 100	> 100	> 100	> 100	> 100	> 100	> 100
Cc1cc2nc3c(N)nn(CCCN(C)C)c3nc2cc1C		> 100	> 100			> 100	> 100		> 100	> 100	> 100	> 100	> 100
C[N+]1(CC[N+]2(C)CCCC2c2cccnc2)CCCC1c1cccnc1 (configuration not stated)	> 100	> 100	> 100			> 100	> 100	> 100	> 100	> 100	> 100	> 100	> 100
CCOC(=O)c1c(NS(=O)(=O)c2ccccc2)sc2c1CCCC2		> 100	> 100	> 100	> 100	> 100	> 100	> 100	> 100	> 100	> 100	> 100	> 100
COc1cc2c(cc1C)NC(=O)/C2=C/c1c(Cl)[nH]c2ccccc12	15.3	16.9	24.4	17.2		24.7	17.7	> 100	22.8	19.2	16.7	9.35	14.4
CCN(CC)C(=O)N[C@@H](CC(C)C)C(=O)NC	> 100	> 100	> 100	> 100		> 100	> 100	> 100		> 100	> 100	> 100	> 100
COc1ccc2nc(-c3ccc(N)cc3)sc2c1	> 100	> 100	> 100	> 100	> 100	> 100	> 100	> 100	> 100	> 100		> 100	> 100
O=C(O)c1ccccc1Sc1ccc(C=C2NC(=S)N(c3ccccc3)C2=O)s1	> 100	> 100	> 100		> 100	> 100	> 100	> 100	> 100	> 100	> 100	> 100	> 100
C#C[C@]1(O)CC[C@H]2[C@@H]3CCC4=C/C(=N/OC(=O)c5cccc6cc7ccccc7nc56)CC[C@@H]4[C@H]3CC[C@@]21CC		> 100	> 100	> 100	> 100	> 100	> 100	> 100	> 100	> 100	> 100	> 100	> 100
O=C1CC2(CCN(Cc3ccccc3)CC2)C(=O)N1N1CCCCC1	> 100	> 100	> 100		> 100	> 100	> 100	> 100	> 100	> 100	> 100	> 100	> 100
